# Measured values as given in PubChem BioAssay (NCI).
# Where “and” joins values, the source holds several entries; their conditions need not be identical. Identical values can stand only once.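 Where inhibition never reached the appropriate level, the endpoint shown equals the highest concentration tested. Otherwise, values were interpolated linearly from a five-concentration, 48-hour dose response in 96-well plates. GI50 is the concentration that inhibits growth by half. TGI is the concentration that stops growth completely.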
# How the values were obtained:
# Assay in all cases: DTP human tumour cell line panel, 48 h
# [1] = test system: A498 renal
# [2] = test system: HCC-2998 colon
# [3] = test system: HOP-62 NSCLC
# [4] = test system: MCF7 breast
# [5] = test system: NCI-H522 lung
# [6] = test system: OVCAR-5 ovarian
# [7] = test system: RXF 393 renal
# [8] = test system: SK-MEL-5 melanoma
# [9] = test system: SK-OV-3 ovarian
# [10] = test system: SNB-19 CNS
Structure (SMILES),GI50 [1],TGI [1],GI50 [2],TGI [2],GI50 [3],TGI [3],GI50 [4],TGI [4],GI50 [5],TGI [5],GI50 [6],TGI [6],GI50 [7],TGI [7],GI50 [8],TGI [8],GI50 [9],TGI [9],GI50 [10],TGI [10]
COc1cccc(F)c1C(=O)c1cnc(NC2CCN(S(C)(=O)=O)CC2)nc1N,3.58 µM,8.72 µM,4.75 µM,> 25 µM,4.64 µM,23 µM,326 nM,> 25 µM,7870 nM,> 23.7 µM,3.59 µM,> 25 µM,1880 nM,6190 nM,2060 nM,> 23.3 µM,13 µM,> 25 µM,3.46 µM,> 25 µM
N#Cc1c(NC(=O)NCc2ccccc2)sc2c1CCCCC2,0.218 µM,1.1 µM,1.77 µM,> 28.5 µM,0.706 µM,> 64.2 µM,353 nM,> 100 µM,601 nM,25.3 µM,2.05 µM,> 100 µM,352 nM,2380 nM,478 nM,3.6 µM,0.799 µM,> 100 µM,0.588 µM,> 100 µM
Cn1cc(C2=C(c3ccc(N)cc3)C(=O)NC2=O)c2ccccc21,3.63 µM,12 µM,> 25 µM,> 25 µM,> 25 µM,> 25 µM,13700 nM,> 25 µM,15400 nM,> 25 µM,> 25 µM,> 25 µM,4850 nM,> 22900 nM,> 17800 nM,> 25 µM,13.9 µM,> 25 µM,> 25 µM,> 25 µM
COc1ccc(OC)c2c1[nH]c(=O)c1c3ccccc3cn21,1.77 µM,3.2 µM,1.34 µM,2.68 µM,1.52 µM,3.18 µM,72.7 nM,1.98 µM,1700 nM,3.48 µM,1.87 µM,3.69 µM,1500 nM,3010 nM,1530 nM,2.93 µM,1.47 µM,2.97 µM,1.64 µM,3.4 µM
COC(=O)C[C@](O)(CCCC(C)(C)O)C(=O)O[C@@H]1C(OC)=C[C@]23CCCN2CCc2cc4c(cc2[C@H]13)OCO4,0.0173 µM,0.146 µM and 0.0396 µM,0.0137 µM,0.246 µM and 0.0428 µM,0.0363 µM,0.366 µM and 0.265 µM,< 10 nM,0.377 µM and 0.0666 µM,48.2 nM and < 10 nM,0.186 µM and 0.0288 µM,0.0489 µM,2.93 µM and 0.556 µM,21.7 nM,503 nM and 107 nM,14.9 nM,,0.0284 µM,1.82 µM and 0.395 µM,0.0214 µM,1.29 µM and 1.39 µM
Nc1ccc([N+](=O)[O-])cc1N=C/C=C/c1ccccc1,15.1 µM,64.4 µM,30.1 µM,> 100 µM,42.5 µM,> 100 µM,6610 nM,> 100 µM,4470 nM,59 µM,81.2 µM,> 100 µM,22700 nM,> 100000 nM,10700 nM,48.8 µM,26.5 µM,> 100 µM,31.5 µM,> 100 µM
CO/N=C(/C)c1cccc(Nc2cc(-n3nnc4ccccc43)nc3ccccc23)c1,,,25.7 µM,> 100 µM,19.6 µM,53.6 µM,31300 nM,> 100 µM,> 100000 nM,> 100 µM,41.7 µM,> 100 µM,,,14400 nM,32.5 µM,> 100 µM,> 100 µM,30.2 µM,> 100 µM
COc1cc(C(=O)N2CCN(C=O)C2=S)cc(OC)c1OC,20.5 µM,37.6 µM,19.8 µM,38.7 µM,20 µM,61.1 µM,5490 nM,24.6 µM,5800 nM,20.8 µM,48.5 µM,> 100 µM,16100 nM,32400 nM,,,21.9 µM,72.8 µM,28.5 µM,70.4 µM
CC[As](CC)SC[C@H](C)C(=O)N1CCC[C@H]1C(=O)O,0.296 µM,0.866 µM,,,0.417 µM,1.37 µM,36.3 nM,0.159 µM,18.9 nM,0.0482 µM,0.245 µM,0.735 µM,< 29.7 nM,475 nM,54 nM,0.151 µM,0.326 µM,1.05 µM,,
CCCCC#CC1=C(Br)C(=O)OC1,18.1 µM,33.5 µM,,,7.13 µM,20.8 µM,1030 nM,8.08 µM,2270 nM,5.08 µM,2.73 µM,7.38 µM,1890 nM,4570 nM,118 nM,0.366 µM,36.1 µM,> 77.2 µM,12.9 µM,37.1 µM
COC(=O)C1c2cc3c(cc2C(OC2OC(C)C(OC)C(C)(OC)C2OC)CC1(C)O)C(=O)c1c(O)cc2c(c1C3=O)OC1OC2(C)C(O)C([N+](C)(C)[O-])C1O (configuration not stated),,3.7 µM,,,,> 100 µM,,> 100 µM,,0.809 µM,,> 43.6 µM,,977 nM,,0.352 µM,,> 64.1 µM,,> 36.1 µM
COc1cc(-c2oc(=O)ccc2C#Cc2ccccn2)cc(OC)c1OC,3.81 µM,> 48.3 µM,0.236 µM,4.6 µM,2.42 µM,> 100 µM,798 nM,> 100 µM,,,10.5 µM,> 100 µM,273 nM,2090 nM,2090 nM,11.2 µM,3.43 µM,97.7 µM,3.8 µM,> 76.1 µM
CSc1nc(=O)n(CCC#N)nc1SC,,> 100 µM,,31.9 µM,,> 100 µM,,9.04 µM,,61.8 µM,,> 100 µM,,,,43 µM,,> 100 µM,,> 100 µM
O=C(O)c1nnsc1-c1ccc(-c2snnc2C(=O)O)cc1,,> 100 µM,,,,> 100 µM,,> 100 µM,,> 100 µM,,> 100 µM,,> 100000 nM,,> 100 µM,,> 100 µM,,> 100 µM
